Laboratory results as given in article PMC10747733, “N-Substituted 2-(Benzenosulfonyl)-1-Carbotioamide Derivatives Exert Antimicrobial and Cytotoxic Effects via Aldehyde Dehydrogenase Pathway: Synthesis, In Silico and In Vitro Studies” (Pharmaceuticals, 2023).
Converted amounts (≈) assume the structure as drawn. “And” between values parts separate entries of the source, which are not always exact repeats. Equal values may be shown once.

Columns and labels:
Gram-positive bacteria = experiment: Broth microdilution, summary over reference Gram-positive bacteria; type: cell-based; conditions: for share of reference Gram-positive strains with moderate activity: moderate activity: MIC 126–500 µg/mL; for share of reference Gram-positive strains with moderate activity / share of reference Gram-positive strains with no activity / share of reference Gram-positive strains with mild activity / share of reference Gram-positive strains with good activity: 8 strains; for share of reference Gram-positive strains with no activity: no activity: MIC > 1000 µg/mL; for share of reference Gram-positive strains with mild activity: mild activity: MIC 501–1000 µg/mL; for share of reference Gram-positive strains with good activity: good activity: MIC 26–125 µg/mL
Source text: Reference strains of microorganisms that came from American Type Culture Collection (ATCC) (Manassas, VA, USA) were used for this study. The representative Gram-positive bacteria were as follows: Staphylococcus aureus ATCC 25923, Staphylococcus aureus ATCC 29213, Staphylococcus aureus ATCC 43300, Staphylococcus epidermidis ATCC 12228, Enterococcus faecalis ATCC 29212, Micrococcus luteus ATCC 10240, Bacillus subtilis ATCC 6633 and Bacillus cereus ATCC 10876. While, those of Gram-negative bacteria were as follows: Bordetella bronchiseptica ATCC 4617, Escherichia coli ATCC 25922, Klebsiella pneumoniae ATCC 13883, Proteus mirabilis ATCC 12453, Salmonella Typhimurium ATCC 14028 and Pseudomonas aeruginosa ATCC 9027. Moreover, the following fungi belonging to yeasts were used: Candida albicans ATCC 10231, Candida albicans ATCC 2091, Candida parapsilosis ATCC 22019, Candida glabrata ATCC 90030 and Candida krusei ATCC 14243.
The new compounds WZ1–WZ4 were assayed for both antibacterial and antifungal activity using the broth microdilution method in accordance with the European Committee on Antimicrobial Susceptibility Testing (EUCAST) and Clinical and Laboratory Standards Institute (CLSI) guidelines. The microorganisms were grown at 35 °C for 18–24 h on appropriate media (nutrient agar and Sabouraud for bacteria and fungi, respectively) (BioMaxima S.A., Lublin, Poland). Next, microbial suspensions with an optical density of 0.5 McFarland standard scale (in sterile 0.85% NaCl) were prepared. In turn, the tested compounds were initially diluted at 50 mg/mL in dimethyl sulfoxide (DMSO) and the broth microdilution method was used to assess their minimum inhibitory concentrations (MICs). For these studies, selective broth Mueller-Hinton (MH) (BioMaxima S.A., Lublin, Poland) and RPMI (Roswell Park Memorial Institute) 1640 with MOPS (3-(N-Morpholino)propanesulfonic acid) (Sigma-Aldrich Chemicals, St. Louis, MO, USA) were used for bacteria and fungi, respectively. The antimicrobial effect of compounds WZ1–WZ4 was determined in the concentration range from 2000 to 0.98 µg/mL.
Then, the microbial suspensions were introduced into each well of the microplate and incubated for 18–24 h at 35 °C. […] The reference drugs ciprofloxacin or vancomycin (against bacteria) and nystatin (against fungi) (Sigma-Aldrich Chemicals, St. Louis, MO, USA) were also used. Next, the values of the minimum bactericidal concentration (MBC) and minimum fungicidal concentration (MFC) of WZ1–WZ4 were assessed. For this purpose, the cultures from each MIC determination well were transferred to a suitable solid medium and incubated under appropriate conditions. The lowest concentrations of compounds without microbial growth were read as MBC or MFC. The studies were performed in triplicate and representative data were gathered.
In turn, the MBC/MIC or MFC/MIC ratios were used to assess bactericidal/fungicidal (MBC/MIC or MFC/MIC ≤ 4) and bacteriostatic/fungistatic (MBC/MIC or MFC/MIC > 4) effect of these compounds [93].

ALDH1A1 = ALDH1A1 concentration by ELISA in 769-P cells; type: cell-based, human
Experimental: The effect of compounds WZ1–WZ4 on ALDHA1 levels was investigated (Figure 10). The Du145, HepG2 and 769-P cell lines were treated with the calculated IC25 values for each compound.
Selected cell lines, viz HepG2, Du145 and 769-P, were seeded into 6-well plates and incubated for 24 h after seeding with compounds at a concentration equal to IC25. After a further 24 h or 48 h, cells were detached with trypsin and centrifuged. The resulting cell pellet was resuspended in 0.5 mL PBS. The samples were then sonicated, and protein was determined using the Bradford method (Bio-rad; Hercules, CA, USA). Samples were equilibrated to 10 mg/mL of protein, and ALDH1A1 was determined in the samples prepared in this way. ALDH1A1 determination was performed using an ELISA (SEE824Hu; Cloud Clone Corp., Katy, TX, USA), according to the manufacturer’s protocol.

Du145 (prostate cancer) = experiment: MTT antiproliferative activity assay; type: cell-based, human; conditions: for concentration at which a statistically significant decrease in viability was observed: tested 1–500 µM; for TI after 24h / TI after 48h: IC50 WS1 / IC50 DU145
Experimental: (§1) Cancer cell lines originating from different organs, i.e., AGS (stomach—gastric adenocarcinoma), HepG2 (hepatocellular carcinoma), Du145, PC3 (prostate cancer), 769-P (renal cell carcinoma) and physiology cell line WS1 (fibroblasts), were purchased from ATCC. The cell cultures were carried out in an appropriate medium (DMEM or MEM) containing 10% heat-inactivated FBS with penicillin (100 U/mL) and streptomycin (100 U/mL). The cells were kept in a humidified incubator at 37 °C and 5% CO2 and passaged three times before experimenting.
(§2) The antiproliferative properties test for each cancer line was performed in 96-well plates, in which cells with a density of 2 × 10^4 were seeded in 100 µL of medium containing 10% FBS. After 24 h of allowing the cells to attach, the wells were washed with DPBS (Dulbecco’s phosphate-buffered saline) solution and the cells were incubated in fresh medium w/o FBS containing 1 µM, 10 µM, 50 µM, 200 µM or 500 µM of the tested compounds for 24 and 48 h. All substances were first dissolved in DMSO to prepare stock solutions that were then diluted in the medium to obtain a maximum of 0.1% w/v DMSO in the final solution. Each concentration was tested in triplicate. DMSO at a concentration of 0.1% in the medium was also used as a negative control. The antiproliferative activity of the compounds was tested using the MTT test. After each incubation time, the medium containing the test compounds and the negative control was removed, the cells were washed with DPBS solution, and then 100 µL of FBS-free and antibiotic-free fresh medium containing 0.5 mg/mL MTT was added to each well. The plates were incubated for 3 h in an incubator at 37 °C and 5% CO2. After incubation, the medium was removed, the cells were washed with 100 µL of PBS, and 100 µL of DMSO was added to each well to dissolve the purple formazan. The plate was shaken for 3 min and the absorbance was read at 570 nm (BioTek Synergy H1 microplate reader). Cell viability was calculated from the mean of the OD readings. Based on the dose–response curve, IC50 values were calculated (MS Excel). […] Therapeutic index (TI) results were calculated as the ratio of the IC50 of physiological cells to the IC50 of tumor cells.

[1] = tested on: 769-P (renal cell carcinoma); experiment: MTT antiproliferative activity assay; type: cell-based, human; conditions: for decrease in viability: 769-P; for TI after 24h / TI after 48h: IC50 WS1 / IC50 769-P
Experimental: as §1, §2

[2] = tested on: HepG2 (hepatocellular carcinoma); experiment: MTT antiproliferative activity assay; type: cell-based, human; conditions: for TI after 24h / TI after 48h: IC50 WS1 / IC50 HepG2
Experimental: as §1, §2

[3] = almost all Gram-positive bacteria

SMILES | MIC (Gram-positive bacteria; [3]) [µg/mL] | share of reference Gram-positive strains with moderate activity (Gram-positive bacteria) [%] | share of reference Gram-positive strains with no activity (Gram-positive bacteria) [%] | ALDH1A1 concentration compared to control (ALDH1A1; compound at IC25, 24 h) | decrease in viability (Du145 (prostate cancer); Du145, 24 h, 1 µM) | concentration at which a statistically significant decrease in viability was observed (Du145 (prostate cancer); Du145, 48 h) [µM] | TI after 24h (Du145 (prostate cancer); 24 h) | TI after 48h (Du145 (prostate cancer); 48 h) | decrease in viability ([1]; 24 h, 1 µM) | decrease in viability ([1]; 48 h, 1 µM) | TI after 24h ([1]; 24 h) | TI after 48h ([1]; 48 h) | decrease in viability ([2]; HepG2, 24 h, 200 µM) | TI after 24h ([2]; 24 h) | TI after 48h ([2]; 48 h) | share of reference Gram-positive strains with mild activity (Gram-positive bacteria) [%] | ALDH1A1 concentration compared to control (ALDH1A1; compound at IC25, 48 h) | share of reference Gram-positive strains with good activity (Gram-positive bacteria) [%] | MBC/MIC ratio (Gram-positive bacteria; most Gram-positive bacteria) | decrease in viability ([2]; HepG2, 48 h, 1 µM) | other results
O=S(=O)(NNC(=S)NC1CCCCC1)c1ccccc1 [WZ1, 2-(Benzenesulfonyl)-N-Cyclohexylhydrazine-1-Carbothioamide] | 62.5 to 500 (≈ 199 to 1600 µM) | 87.5 | 12.5 | decrease | ~ 7% | 200 | 16.001 | 0.170 | ~ 11% | ~ 15% | 22.712 | 7.757 | ~ 15% | 0.003 | 7.442 |  |  |  |  |  | MIC (Gram-positive bacteria; Enterococcus faecalis, Gram-positive bacteria except E. faecalis): 250 to 500 µg/mL (≈ 798 to 1600 µM); decrease in viability ([2]; HepG2, 48 h, 10 µM): ~ 7%
CCCCNC(=S)NNS(=O)(=O)c1ccccc1 [WZ2, 2-(Benzenesulfonyl)-N-Butylhydrazine-1-Carbothioamide] |  |  | 37.5 | no significant changes |  |  | 2,352,384.152 | 28.982 | ~ 8% | ~ 10% | 753,464,970.626 | 67,951.475 |  | 205,540,220.291 | 15,880.957 | 62.5 | significant decrease |  |  |  | MIC (Gram-positive bacteria; most Gram-positive bacteria): 1000 µg/mL (≈ 3480 µM); viability at 50 µM (Du145 (prostate cancer); Homo sapiens, DU-145, Du145, 24 h, 50 µM, read-out: viability (dropped to)): ~80%; viability at 1 µM (Du145 (prostate cancer); Homo sapiens, DU-145, Du145, 48 h, 1 µM, read-out: viability (dropped to)): ~92%; decrease in viability ([2]; HepG2, 24 h, 500 µM): ~ 22%; viability (decreased to) ([2]; HepG2, 48 h, 1 µM): ~ 82%
CCCCCCNC(=S)NNS(=O)(=O)c1ccccc1 [WZ3, 2-(Benzenesulfonyl)-N-Hexylhydrazine-1-Carbothioamide] | 62.5 to 500 (≈ 198 to 1580 µM) | 87.5 |  | increase |  |  | 0.476 |  | ~ 22% | ~ 48% | 0.078 | 115.134 | ~ 31% | 1.701 | 2.426 |  |  | 12.5 | 1–4 | ~ 7% | MIC (Gram-positive bacteria; Bacillus subtilis, remaining Gram-positive microorganisms (other than B. subtilis)): 250 to 500 µg/mL (≈ 792 to 1580 µM); decrease in viability (Du145 (prostate cancer); Du145, 24 h, 200 µM): ~ 19%; decrease in viability (Du145 (prostate cancer); Du145, 48 h, 50 µM): ~ 6%; decrease in viability ([1]; 24 h, 200 µM): ~ 22%
CNC(=S)NNS(=O)(=O)c1ccccc1 [WZ4, 2-(Benzenesulfonyl)-N-Methylhydrazine-1-Carbothioamide] | 62.5 to 500 (≈ 255 to 2040 µM) | 37.5 |  | decrease | ~ 10% | 1 to 500 |  | 1.272 and > 1 |  | ~ 16% | 1.653 | 15.763 | ~ 18% |  |  | 25 | significant decrease | 37.5 | 1–4 | ~ 3% | MIC (Gram-positive bacteria; Staphylococcus aureus ATCC 43300, Staphylococcus aureus ATCC 25923 and Micrococcus luteus): 250 to 500 µg/mL (≈ 1020 to 2040 µM); MIC (Gram-positive bacteria; Staphylococcus epidermidis, Bacillus subtilis and Bacillus cereus): 62.5 to 125 µg/mL (≈ 255 to 510 µM); decrease in viability (Du145 (prostate cancer); DU145, 48 h, 1 µM): ~ 10%; concentration at which a statistically significant decrease in viability was observed (Du145 (prostate cancer); Du145, 24 h): 1 to 500 µM; decrease in viability ([1]; 24 h, across 10–500 µM): 21–56%; decrease in viability ([1]; 48 h, across 1–500 µM): 16–82%; decrease in viability ([2]; HepG2, 24 h, 1 µM): ~ 4%; viability (reduced to) ([2]; HepG2, 48 h, 50 µM): ~ 69%
